Here are results for two molecules from patent publication US9487551B2, “Small molecule compounds that control mammal-pathogenic nematodes” (California Institute of Technology, priority 2011, dated 2016).

Entries after “also recorded” stand apart in the source; their conditions may differ.

In test [1] the test system is C. elegans. The test can be described thus: Ascaroside function (Table 12). The class given is in vivo, Caenorhabditis elegans. The following applies: listed = has this function. Also noted: key to Attract Females/Herm. / Promote Dauer Formation / Attract Males: A very strong result of affecting nematode behavior is designated in the table as “strong.”. Here is the method:
Various ascarosides and ascaroside blends were administered to various nematodes described below (Table 12). […] A very strong result of affecting nematode behavior is designated in the table as “strong.”

The subject of test [2] is ASI sensory neurons. The note with it: in vivo; cited from earlier work.
Test [3] has as its system C. elegans. The test can be described thus: Spot attraction assay. The format is in vivo. Here is the method:
The spot attraction assays were conducted according to a previously reported method (Pungaliya et al., PNAS 106:7708-13 (2009); Srinivasan et al., Nature 454:1115-18 (2008), which are hereby incorporated by reference in their entirety). For both C. elegans hermaphrodites and males, 50-60 worms were harvested daily at the fourth larval stage (L4) and stored segregatedly by sex at 20° C. overnight, to be used as young adults the following day. For the competition experiments, two conditions were used: 120 nM ascr#3 and 10 nM icas#3 (Condition 1), or 12 μM ascr#3 and 1 μM icas#3 (Condition 2) in water containing 10% ethanol. Aliquots were stored at −20° C. in 20 μL tubes. 10% ethanol in water was used as control.
Attraction assays with hbas#3 were conducted as previously reported (Srinivasan et al., Nature 454:1115-18 (2008); Pungaliya et al., Proc. Natl. Acad. Sci. U.S.A. 106:7708-13 (2009), which are hereby incorporated by reference in their entirety). For the attraction assays, 50-60 hermaphrodite worms were harvested daily at the early fourth larval stage (L4) and stored at 20° C. overnight to be used as young adults the following day. Hbas#3 was dissolved in water containing 10% ethanol. Aliquots were stored at −20° C. in 20 μL tubes. 10% ethanol in water was used as control.

Test [4] has as its system C. elegans. The test can be described thus: Quadrant chemotaxis assay. The following applies: for chemotaxis of hermaphrodites from all tested strains: 1 pM icas#3, except npr-1(ad609) for the blend. The class given is in vivo. How it is done: Chemotaxis to both non-indole and indole ascarosides was assessed on 10 cm four-quadrant petri plates (Wicks et al., Dev. Biol. 221:295-307 (2000), which is hereby incorporated by reference in its entirety). Each quadrant was separated from adjacent ones by plastic spacers (FIG. 1B). Pairs of opposite quadrants were filled with nematode growth medium (NGM) agar containing either indole ascarosides or non-indole ascarosides at different concentrations. Animals were washed gently in a S-basal buffer, placed in the center of a four-quadrant plate with ascarosides in alternating quadrants, and scored after 15 minutes and 30 minutes. A chemotaxis index was calculated as: (the number of animals on ascaroside quadrants minus the number of animals on buffer quadrants)/(total number of animals).
Chemotaxis to hbas#3 was assessed on 10 cm four-quadrant petri plates (Wicks et al., Dev. Biol. 221:295-307 (2000), which is hereby incorporated by reference in its entirety). Each quadrant was separated from adjacent ones by plastic spacers. Pairs of opposite quadrants were filled with nematode growth medium (NGM) agar containing different concentrations of hbas#3. Animals were washed gently in an S-basal buffer and placed in the center of a four-quadrant plate with ascarosides in alternating quadrants, and scored after 15 minutes and 30 minutes. A chemotaxis index was calculated as: (the number of animals on ascaroside quadrants minus the number of animals on buffer quadrants)/(total number of animals).

The test system of test [5] is C. elegans. As to the kind of experiment: Aggregation assay. The format is in vivo. Here is the method: Aggregation behavior of worms was measured using assays reported in de Bono & Bargmann, Cell 94:679-89 (1998), which is hereby incorporated by reference in its entirety. Aggregation assays were conducted on standard NGM plates. Plates containing indole ascarosides were made by adding the indole ascaroside stock solution to the NGM media before they were poured onto the plates. These plates were dried at room temperature for 2 to 3 days. Control plates were treated similarly, except that ethanol solutions instead of icas solutions were added to the plates, corresponding to the amount of ethanol introduced via the icas solutions. Final ethanol concentrations of the plates were below 0.1% for all conditions. After drying, both control plates and plates containing indole ascarosides were seeded with 150 μl of an overnight culture of E. coli OP50 using a micropipette, and were allowed to dry for 2 days at room temperature. For “low worm density” experiments, 20 worms were placed onto the lawn and left at 20° C. for 3 hours. For “high worm density” experiments, approximately 120 worms were placed onto the bacterial lawn and left at 20° C. for 3 hours. Aggregation behavior was quantified as the number of animals that were in touch with two or more animals at greater than 50% of their body length.

Test [6] deals with C. elegans. The test can be described thus: Measurement of locomotory parameters (automated worm-tracking). The class given is in vivo. How it is done:
Reversal frequency and velocity were measured using an automated worm-tracking system (Pungaliya et al., PNAS 106:7708-13 (2009); Srinivasan et al., Nature 454:1115-18 (2008), which are hereby incorporated by reference in their entirety).

The test system of test [7] is AIA interneurons. As to the kind of experiment: Calcium imaging (G-CaMP). The class given is in vivo, C. elegans. The note with it: 1 μM icas#3. The text has this:
Transgenic lines that express the genetically encoded Ca^2+ sensor in ASK (kyEx2866) and AIA (kyEx2916) (Macosko et al., Nature 458:1171-75 (2009), which is hereby incorporated by reference in its entirety) were used for calcium imaging. Young adults or adult worms were inserted into an “Olfactory chip” microfluidic device (Chronis et al., Nat. Methods 4:727-31 (2007), which is hereby incorporated by reference in its entirety). Dilutions of icas#3 were done with S-basal buffer (with no cholesterol). As stock solutions of icas#3 contained small amounts of ethanol, equivalent amounts of ethanol were added to the S-basal control flow.
Imaging was conducted using an inverted Zeiss microscope equipped with an Andor camera. Exposure time for image acquisition was 300 milliseconds. Before imaging the ASK neuron, the worm was exposed to blue light for 3 minutes as ASK responds to the blue light itself. […] Movies were analyzed using custom-made Matlab scripts. The first peak of fluorescence immediately after exposure to buffer or icas#3 was chosen for calculating the average change in fluorescence upon exposure to either buffer or icas#3. The value for this maximum was then subtracted from the mean fluorescence during the 5 seconds before the delivery of icas#3/buffer (corresponding to the region between 5 to 10 seconds in FIG. 2D).

On to `C[C@@H]1O[C@@H](OCCC(=O)O)[C@H](O)C[C@H]1O` [ascr#5], for which, in test [1], the “Promote Dauer Formation” value is “ascr#5 ([strong])” and the “Repel Females/Herm.” value is “ascr#5”. Moreover, the “calcium transients in the ASI sensory neurons” value in test [2] is listed as “does not elicit calcium transients”.

`C[C@H](CCCC/C=C/C(=O)O)O[C@@H]1O[C@@H](C)[C@H](OC(=O)c2c[nH]c3ccccc23)C[C@H]1O` [icas#3]: the “attraction in spot attraction assay” value in test [3] (1 pmol (high concentrations), N2 hermaphrodites and him-5 males) was “attractive to both C. elegans sexes; also recorded: attracted both males and hermaphrodites”. In addition, the “attraction after ablation of ASI neurons” value in test [3] (ASI-ablated hermaphrodites) was “no significant effect”. Moreover, the “attraction after ablation of ASK sensory neurons” value in test [3] (ASK-ablated hermaphrodites) was “near complete loss of attraction”. The “attraction of daf-22 hermaphrodites” value in test [3] (daf-22 mutant) is given as “attracted; also recorded: as strongly as N2 worms”. In addition, in test [3] (hyperactive MEC-4 in AIA interneuron), the “attraction of AIA-deficient worms” value is recorded as “did not show any attraction”. In addition, the attraction of hermaphrodites result in test [3] (low concentrations, N2 hermaphrodites) was “strongly attractive to hermaphrodites”. For the same molecule, in test [3] (low concentrations, males), the attraction of males result is given as “no longer attracted”. Also, in test [3] (npr-1(ad609) mutant), the “attraction of npr-1(ad609) hermaphrodites” value was “strongly attracted”. Moreover, in test [3] (strains RC301 and CB4856), the “attraction of social wild-type hermaphrodites” value is recorded as “strongly attracted”. The “response after ablation of RMG interneuron” value in test [3] (wild-type and ncs-1::gfp worms, RMG ablated) is “did not affect icas#3 response”. Moreover, in test [4] (after 15 minutes, 10 nM of each ascr#2,3,5), the “chemotaxis of hermaphrodites from all tested strains” value is “attracted”. Also, the “chemotaxis of hermaphrodites from all tested strains” value in test [4] (after 30 minutes, 10 nM ascr#2,3,5) was “attracted”. Further, the “response of daf-22 hermaphrodites” value in test [4] (daf-22 mutant) is on record as “as strongly as N2 worms”. The “concentration as low as which resulted in strong attraction of hermaphrodites” value in test [4] (in the presence and absence of food) turned out to be 1 pM. Besides, the “chemotaxis of npr-1(ad609) hermaphrodites” value in test [4] (npr-1(ad609) mutant) is recorded as “strongly attracted”. Besides, the “chemotaxis of social wild-type hermaphrodites” value in test [4] (strains RC301 and CB4856) is on record as “strongly attracted”. The “aggregation of CB4856” value in test [5] (1 nM of icas#3) is given as “not significantly different from the control”. Also, the “aggregation of hermaphrodites lacking the ASK neurons” value in test [5] (any of the tested concentrations) was “did not aggregate”. Moreover, the “aggregation of daf-22 hermaphrodites” value in test [5] (compared with N2) was “less aggregation than N2 worms at 1 pM icas#3 but not at 10 pM icas#3”. For the same molecule, the “aggregation of solitary and social hermaphrodites” value in test [5] (constant background concentration) was “strongly increased the propensity”. Besides, the “aggregation of npr-1(ad609) hermaphrodites” value in test [5] (entire tested concentration range, no drop off) is recorded as “increased aggregation”. In test [5] (icas#3 plates), the “aggregation of him-5 males” value is reported as “significantly increased”. Moreover, the “concentration window for hermaphrodite attraction and aggregation” value in test [5] (in vivo) is listed as “femtomolar to low picomolar”. Further, in test [5] (low worm density, solitary and social hermaphrodites), the “concentration as low as which gave a very strong increase in aggregation” value is on record as 10 fM. The worm velocity entry in test [6] (1-10 pM icas#3) is recorded as “not significantly reduced”. Moreover, in test [6] (aggregation-inducing concentrations, N2 hermaphrodites), the mean stopped duration entry is on record as “strongly increase”. In addition, the “reversal frequency and velocity of ASK-ablated hermaphrodites” value in test [6] (icas#3 plates) is reported as “neither increased reversal frequency nor decreased velocity”. The “G-CaMP fluorescence in the AIA neurons” value in test [7] was “significantly increased G-CaMP fluorescence”. In addition, in test [1], the “Attract Females/Herm.” value was “icas#3 ([strong])” and the “Attract Males” value is “icas#3 ([strong])”.
